Measurements: ChEMBL document CHEMBL1156893, “Structure-activity relationships amongst 4-position quinoline methanol antimalarials that inhibit the growth of drug sensitive and resistant strains of Plasmodium falciparum” (Bioorg Med Chem Lett, 2010)
In brackets after ≈: the same amount, converted by molar mass.

Tests used:
Plasmodium falciparum [1] = assay: Antimalarial activity against chloroquine-resistant and mefloquine-sensitive Plasmodium falciparum W2; assay type: functional, organism-based
Plasmodium falciparum [2] = assay: Antimalarial activity against chloroquine and mefloquine-sensitive Plasmodium falciparum D6; assay type: functional
Plasmodium falciparum [3] = assay: Antimalarial activity against chloroquine, pyrimethamine and mefloquine-resistant Plasmodium falciparum TM1C235; assay type: functional, organism-based
Plasmodium falciparum [4] = assay: Antimalarial activity against Plasmodium falciparum TM90C2A; assay type: functional, organism-based
[5] = Cytotoxicity against mouse RAW264.7 cells; assay type: cell-based; settings: read-out: LC50 (the source's name)
[6] = Half life in mouse liver microsomes; assay type: ADME, Microsome
[7] = Apparent permeability from apical to basolateral side of MDCK cell monolayer expressing MDR1; assay type: ADME, cell-based, Canis lupus familiaris; settings: dog
Plasmodium berghei = assay: Antimalarial activity against Plasmodium berghei infected in ICR mice (Mus musculus) assessed as delay in mortality at 160 mg/kg, perorally for 3 days; assay type: functional, organism-based; design: dose 160 mg/kg

Row | SMILES | IC90 (Plasmodium falciparum [1]) [µg/mL] | IC90 (Plasmodium falciparum [2]) [µg/mL] | IC90 (Plasmodium falciparum [3]) [µg/mL] | IC90 (Plasmodium falciparum [4]) [µg/mL] | CC50 [5] [µg/mL] | half-life [6] [min] | Papp A→B [7] [×10⁻⁶ cm/s] | IC50 (Plasmodium falciparum [1]) [µg/mL] | IC50 (Plasmodium falciparum [3]) [µg/mL] | IC50 (Plasmodium falciparum [4]) [µg/mL] | survival time (Plasmodium berghei) [days]
1 | CCCc1nccn1CC(O)c1cc(C(F)(F)F)nc2c(C(F)(F)F)cccc12 (stereo not given) | 0.32 (≈ 0.767 µM) | 0.36 (≈ 0.863 µM) | 0.25 (≈ 0.599 µM) | 0.24 (≈ 0.575 µM) | 50.1 (≈ 120 µM) | 8 |  |  |  |  | 
2 | CNCC(O)c1cc(C(F)(F)F)nc2c(C(F)(F)F)cccc12 (stereo not given) | 0.045 (≈ 0.133 µM) | 0.017 (≈ 0.0503 µM) |  |  | 13.7 (≈ 40.4 µM) | 60 | 24 |  |  |  | 
3 | COCCNCC(O)c1cc(C(F)(F)F)nc2c(C(F)(F)F)cccc12 (stereo not given) | 0.059 (≈ 0.154 µM) | 0.015 (≈ 0.0392 µM) | 0.093 (≈ 0.243 µM) | 0.1 (≈ 0.262 µM) | 38.2 (≈ 100 µM) |  | 32 |  |  |  | 
4 | CCCCOCC(O)c1cc(C(F)(F)F)nc2c(C(F)(F)F)cccc12 (stereo not given) |  | > 0.5 |  |  |  |  |  | > 0.5 | > 0.5 | > 0.5 | 
5 | CCCCSCC(O)c1cc(C(F)(F)F)nc2c(C(F)(F)F)cccc12 (stereo not given) |  | > 0.5 |  |  |  |  |  | > 0.5 | > 0.5 | > 0.5 | 
6 | CCc1nc(C)cn1CC(O)c1cc(C(F)(F)F)nc2c(C(F)(F)F)cccc12 (stereo not given) | 0.043 (≈ 0.103 µM) | 0.069 (≈ 0.165 µM) | 0.056 (≈ 0.134 µM) | 0.057 (≈ 0.137 µM) | 25.7 (≈ 61.6 µM) | 22 |  |  |  |  | 
7 | OC(CNCC(F)(F)F)c1cc(C(F)(F)F)nc2c(C(F)(F)F)cccc12 (stereo not given) |  | > 0.5 |  |  | 32.1 (≈ 78.9 µM) |  |  | > 0.5 | > 0.5 | > 0.5 | 
8 | OC(CNCCF)c1cc(C(F)(F)F)nc2c(C(F)(F)F)cccc12 (stereo not given) |  | > 0.5 |  |  |  |  |  | > 0.5 | > 0.5 | > 0.5 | 
9 | OC(c1cc(C(F)(F)F)nc2c(C(F)(F)F)cccc12)C1CCCCN1 (stereo not given) [MEFLOQUINE] |  |  |  |  |  | > 60 |  |  |  |  | 
10 | CCCCCCC(O)c1cc(C(F)(F)F)nc2c(C(F)(F)F)cccc12 (stereo not given) |  | > 0.5 |  |  |  |  |  | > 0.5 | > 0.5 | > 0.5 | 
11 | CCCCNCC(O)c1cc(C(F)(F)F)nc2c(C(F)(F)F)cccc12 (stereo not given) | 0.001 (≈ 0.00263 µM) | 0.002 (≈ 0.00526 µM) | 0.009 (≈ 0.0237 µM) | 0.012 (≈ 0.0316 µM) | 2.96 (≈ 7.8 µM) |  | 25 |  |  |  | 
12 | OC(CNc1ccccc1)c1cc(C(F)(F)F)nc2c(C(F)(F)F)cccc12 (stereo not given) | 0.377 (≈ 0.942 µM) | 0.484 (≈ 1.21 µM) | 0.437 (≈ 1.09 µM) | 0.5 (≈ 1.25 µM) | 22.3 (≈ 55.7 µM) |  |  |  |  |  | 
13 | CCCCN(CCCC)CC(O)c1cc(C(F)(F)F)nc2c(C(F)(F)F)cccc12 (stereo not given) | 0.011 (≈ 0.0252 µM) | 0.002 (≈ 0.00458 µM) | 0.027 (≈ 0.0619 µM) | 0.019 (≈ 0.0435 µM) | 20.1 (≈ 46 µM) |  |  |  |  |  | 
14 | OC(CNCCc1ccccc1)c1cc(C(F)(F)F)nc2c(C(F)(F)F)cccc12 (stereo not given) | 0.023 (≈ 0.0537 µM) | 0.019 (≈ 0.0444 µM) | 0.043 (≈ 0.1 µM) | 0.023 (≈ 0.0537 µM) | 9.64 (≈ 22.5 µM) |  |  |  |  |  | 
15 | CN(C)CC(O)c1cc(C(F)(F)F)nc2c(C(F)(F)F)cccc12 (stereo not given) | 0.069 (≈ 0.196 µM) | 0.02 (≈ 0.0568 µM) | 0.079 (≈ 0.224 µM) | 0.173 (≈ 0.491 µM) | 24.6 (≈ 69.9 µM) |  |  |  |  |  | 
16 | OC(CNCc1ccccc1)c1cc(C(F)(F)F)nc2c(C(F)(F)F)cccc12 (stereo not given) | 0.067 (≈ 0.162 µM) | 0.019 (≈ 0.0459 µM) | 0.086 (≈ 0.208 µM) | 0.151 (≈ 0.364 µM) | 20.4 (≈ 49.3 µM) |  |  |  |  |  | 
17 | OCCNCC(O)c1cc(C(F)(F)F)nc2c(C(F)(F)F)cccc12 (stereo not given) | 0.49 (≈ 1.33 µM) | 0.26 (≈ 0.706 µM) | 0.485 (≈ 1.32 µM) | 0.388 (≈ 1.05 µM) |  |  |  |  |  |  | 
18 | CCCN(CCC)CC(O)c1cc(C(F)(F)F)nc2c(C(F)(F)F)cccc12 (stereo not given) | 0.02 (≈ 0.049 µM) | 0.005 (≈ 0.0122 µM) | 0.02 (≈ 0.049 µM) | 0.03 (≈ 0.0735 µM) | 33.2 (≈ 81.2 µM) |  |  |  |  |  | 
19 | CCCCCCNCC(O)c1cc(C(F)(F)F)nc2c(C(F)(F)F)cccc12 (stereo not given) | 0.372 (≈ 0.911 µM) | 0.124 (≈ 0.304 µM) | 0.409 (≈ 1 µM) | 0.481 (≈ 1.18 µM) |  |  |  |  |  |  | 
20 | CSCCCNCC(O)c1cc(C(F)(F)F)nc2c(C(F)(F)F)cccc12 (stereo not given) | 0.036 (≈ 0.0873 µM) | 0.01 (≈ 0.0242 µM) |  |  | 8.62 (≈ 20.9 µM) |  | 38 |  |  |  | 
21 | COCCCNCC(O)c1cc(C(F)(F)F)nc2c(C(F)(F)F)cccc12 (stereo not given) | 0.051 (≈ 0.129 µM) | 0.012 (≈ 0.0303 µM) | 0.084 (≈ 0.212 µM) | 0.086 (≈ 0.217 µM) | 25.2 (≈ 63.5 µM) |  |  |  |  |  | 
22 | CCN(CC)CC(O)c1cc(C(F)(F)F)nc2c(C(F)(F)F)cccc12 (stereo not given) | 0.026 (≈ 0.0684 µM) | 0.009 (≈ 0.0237 µM) | 0.037 (≈ 0.0973 µM) | 0.067 (≈ 0.176 µM) | 2.09 (≈ 5.5 µM) |  |  |  |  |  | 
23 | CC(C)CNCC(O)c1cc(C(F)(F)F)nc2c(C(F)(F)F)cccc12 (stereo not given) | 0.013 (≈ 0.0342 µM) | 0.002 (≈ 0.00526 µM) | 0.015 (≈ 0.0394 µM) | 0.021 (≈ 0.0552 µM) | 27.1 (≈ 71.3 µM) | 27 |  |  |  |  | 
24 | OC(CNCCNCc1ccccc1)c1cc(C(F)(F)F)nc2c(C(F)(F)F)cccc12 (stereo not given) | 0.029 (≈ 0.0634 µM) | 0.006 (≈ 0.0131 µM) |  |  | 8.28 (≈ 18.1 µM) |  | 8.4 |  |  |  | 10
25 | CC(C)c1nccn1CC(O)c1cc(C(F)(F)F)nc2c(C(F)(F)F)cccc12 (stereo not given) |  | > 0.5 |  |  | 50.1 (≈ 120 µM) | 10 |  | > 0.5 | > 0.5 | > 0.5 | 
26 | Cc1nc2ccccc2n1CC(O)c1cc(C(F)(F)F)nc2c(C(F)(F)F)cccc12 (stereo not given) | 0.22 (≈ 0.501 µM) | 0.11 (≈ 0.25 µM) | 0.31 (≈ 0.706 µM) | 0.32 (≈ 0.728 µM) |  | 9 |  |  |  |  | 
27 | OC(Cn1cnc2ccccc21)c1cc(C(F)(F)F)nc2c(C(F)(F)F)cccc12 (stereo not given) | 0.41 (≈ 0.964 µM) | 0.12 (≈ 0.282 µM) | 0.48 (≈ 1.13 µM) | 0.45 (≈ 1.06 µM) |  | 4 |  |  |  |  | 
28 | OC(c1cc(C(F)(F)F)nc2c(C(F)(F)F)cccc12)C1CCCCN1 (racemic) [MEFLOQUINE] |  |  |  |  |  |  | 9.4 |  |  |  | 
29 | NCC(O)c1cc(C(F)(F)F)nc2c(C(F)(F)F)cccc12 (stereo not given) | 0.4 (≈ 1.23 µM) | 0.47 (≈ 1.45 µM) | > 0.5 | > 0.5 | 8.07 (≈ 24.9 µM) |  |  |  |  |  | 
30 | CC(C)NCC(O)c1cc(C(F)(F)F)nc2c(C(F)(F)F)cccc12 (stereo not given) |  | 0.005 (≈ 0.0136 µM) | 0.023 (≈ 0.0628 µM) |  | 5.2 (≈ 14.2 µM) | 60 |  |  |  |  | 
